# Data as given in ChEMBL document CHEMBL1201862, “PubChem BioAssay data set” (2004).
# Where “and” joins values, the source holds several entries; their conditions need not be identical. Identical values can stand only once.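 96-well plates; 48 h exposure; 5 concentrations. Endpoints by linear interpolation between flanking doses. Not reached: highest tested concentration assigned. GI50 = concentration required for 50% inhibition of growth.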 Calls of active or inactive are those of the source. Rule as the data show it: active = GI50 up to about 1.1 µM and inactive = higher.
# Assays:
# Test in all cases: NCI anticancer screen, dose series, 48 h
# [1] = test system: A498
# [2] = test system: A549
# [3] = test system: CAKI-1
# [4] = test system: CCRF-CEM
# [5] = test system: HCT-116
# [6] = test system: HL-60
# [7] = test system: HOP-62
# [8] = test system: Hs-578T
# [9] = test system: M14
# [10] = test system: MDA-MB-231
# [11] = test system: MOLT-4
# [12] = test system: NCI-H460
# [13] = test system: NCI-H522
# [14] = test system: PC-3
# [15] = test system: RPMI-8226
# [16] = test system: SF-268
# [17] = test system: SK-MEL-5
# [18] = test system: UACC-62
# [19] = test system: UO-31
# [20] = test system: SR
Structure (SMILES),GI50 [1],GI50 [2],GI50 [3],GI50 [4],GI50 [5],GI50 [6],GI50 [7],GI50 [8],GI50 [9],GI50 [10],GI50 [11],GI50 [12],GI50 [13],GI50 [14],GI50 [15],GI50 [16],GI50 [17],GI50 [18],GI50 [19],GI50 [20]
COC(=O)c1c(C#N)c(N)nc2c1CCC2,> 100 µM (inactive),> 100 µM (inactive),> 100 µM (inactive),99.8 µM (inactive),> 100 µM (inactive),> 100 µM (inactive),> 100 µM (inactive),70 µM (inactive),> 100 µM (inactive),> 100 µM (inactive),> 100 µM (inactive),> 100 µM (inactive),> 100 µM (inactive),> 100 µM (inactive),> 100 µM (inactive),> 100 µM (inactive),> 100 µM (inactive),> 100 µM (inactive),69.7 µM (inactive),
CCOC(=O)[C@@]12NN=N[C@@H]1[C@H]1CO[C@H](c3ccccc3)N1C2=O,10.6 µM (inactive),16.9 µM (inactive),11 µM (inactive),7.1 µM (inactive),15 µM (inactive),17.3 µM (inactive),14.5 µM (inactive),4.6 µM (inactive),6.18 µM (inactive),12.2 µM (inactive),5.33 µM (inactive),4.44 µM (inactive),3.01 µM (inactive),10.1 µM (inactive),3.24 µM (inactive),11 µM (inactive),11.1 µM (inactive),7.6 µM (inactive),,
COc1ccccc1OCC(=N/NC(=O)c1ccncc1)/N=C/c1ccncc1,> 100 µM (inactive),> 100 µM (inactive),> 100 µM (inactive),> 100 µM (inactive),> 100 µM (inactive),> 100 µM (inactive),> 100 µM (inactive),> 100 µM (inactive),> 100 µM (inactive),> 100 µM (inactive),> 100 µM (inactive),> 100 µM (inactive),> 100 µM (inactive),> 100 µM (inactive),> 100 µM (inactive),> 100 µM (inactive),,> 100 µM (inactive),,
Nc1nc(N)c2ncn(CC3CCC(CO)C3)c2n1 (stereo not given),> 100 µM (inactive),> 100 µM (inactive),> 100 µM (inactive),> 100 µM (inactive),> 100 µM (inactive),,> 100 µM (inactive),> 100 µM (inactive),> 100 µM (inactive),> 100 µM (inactive),> 100 µM (inactive),,,> 100 µM (inactive),> 100 µM (inactive),> 100 µM (inactive),> 100 µM (inactive),> 100 µM (inactive),> 100 µM (inactive),
C/C(=N\Nc1nc2ccccc2s1)c1cnccn1,,3.3 µM (inactive),0.256 µM (active),0.318 µM (active),1.5 µM (inactive),,2.75 µM (inactive),2.33 µM (inactive),0.685 µM (active),0.757 µM (active),0.461 µM (active),1.77 µM (inactive),0.265 µM (active),2.12 µM (inactive),2.89 µM (inactive),1.16 µM (inactive),2.57 µM (inactive),3.88 µM (inactive),1.06 µM (active),0.652 µM (active)
CCOC(=O)C1CCCCN1C(=O)Cc1c[nH]c2ccccc12 (stereo not given),33.9 µM (inactive),55.2 µM (inactive),69.7 µM (inactive),42.5 µM (inactive),> 100 µM (inactive),31.3 µM (inactive),87.9 µM (inactive),24.8 µM (inactive),63.4 µM (inactive),79.6 µM (inactive),27.4 µM (inactive),> 100 µM (inactive),31.4 µM (inactive),31.7 µM (inactive),20 µM (inactive),45.2 µM (inactive),,45.4 µM (inactive),,
CC(=O)OC[C@@]1(C)[C@@H]2[C@@H]3[C@@]4(CO[C@]3(C)C(=O)[C@@]3(OC(C)=O)C[C@H](C)[C@H](OC(C)=O)[C@@H]3[C@H]4OC(C)=O)[C@H](OC(=O)c3ccccc3)C[C@@H]21,> 100 µM (inactive),74.1 µM (inactive),> 100 µM (inactive),32.8 µM (inactive),67.9 µM (inactive),63.8 µM (inactive),> 100 µM (inactive),> 100 µM (inactive),91.4 µM (inactive),> 100 µM (inactive),,59 µM (inactive),> 100 µM (inactive),45.6 µM (inactive),19 µM (inactive),> 100 µM (inactive),> 100 µM (inactive),> 100 µM (inactive),99.8 µM (inactive),
Nc1sccc1S(=O)(=O)c1ccsc1N,> 100 µM (inactive),> 100 µM (inactive),> 100 µM (inactive),,> 100 µM (inactive),,> 100 µM (inactive),> 100 µM (inactive),> 100 µM (inactive),> 100 µM (inactive),> 100 µM (inactive),> 100 µM (inactive),> 100 µM (inactive),> 100 µM (inactive),> 100 µM (inactive),> 100 µM (inactive),> 100 µM (inactive),> 100 µM (inactive),> 100 µM (inactive),
Cc1cc(C)c(N)c(CO)c1,,42.8 µM (inactive) and 73.6 µM (inactive),4.25 µM (inactive) and 2.87 µM (inactive),> 100 µM (inactive),35.6 µM (inactive) and 19.3 µM (inactive),,38 µM (inactive) and > 53.5 µM (inactive),> 100 µM (inactive),> 100 µM (inactive),> 100 µM (inactive),> 100 µM (inactive),46.7 µM (inactive) and 34 µM (inactive),,> 100 µM (inactive),> 100 µM (inactive),> 100 µM (inactive),> 100 µM (inactive),22.8 µM (inactive) and 13.2 µM (inactive),> 100 µM (inactive) and 97.1 µM (inactive),> 100 µM (inactive)
COc1ccc(C(OCC2OC(n3cnc4c(=O)n(Cc5ccccc5[N+](=O)[O-])nnc43)C(O)C2O)(c2ccccc2)c2ccc(OC)cc2)cc1 (stereo not given),4.46 µM (inactive),5.57 µM (inactive),10.7 µM (inactive),3.76 µM (inactive),5.6 µM (inactive),2.18 µM (inactive),21.6 µM (inactive),20.8 µM (inactive),8.51 µM (inactive),14.1 µM (inactive),2.31 µM (inactive),5.57 µM (inactive),6.49 µM (inactive),3.85 µM (inactive),3.36 µM (inactive),16 µM (inactive),9.31 µM (inactive),12.5 µM (inactive),11.4 µM (inactive),
CCN(CC)CC(O)C1CCC(c2ccccc2)CC1 (stereo not given),14.4 µM (inactive),32.6 µM (inactive),19 µM (inactive),27.4 µM (inactive),23.2 µM (inactive),28.9 µM (inactive),30.9 µM (inactive),30.5 µM (inactive),25.1 µM (inactive),17.1 µM (inactive),43.8 µM (inactive),25.6 µM (inactive),16.2 µM (inactive),43.6 µM (inactive),13.5 µM (inactive),31.6 µM (inactive),13.7 µM (inactive),15.6 µM (inactive),14.8 µM (inactive),
